The test system of one assay is Enterococcus facaelis. Format: cell-based. How it is done:
(§1) The biological activity of the peptides can be determined by standard methods known to those of skill in the art, such as a “minimal inhibitory concentration” (MIC) assay (see Wu and Hancock (1999) J. Biol Chem. 274:29-35 and Examples section). A MIC assay allows the determination of the lowest concentration of peptide that inhibits the multiplication and growth of mircoorganisms. Changes in the microorganism population are assessed by measuring the optical density (OD) of the population in broth or medium. Peptide MIC's can be determined for a variety of micoorganisms under a variety of conditions. Another assay for the biological activity of the peptides is a “fractional inhibitory concentration” (FIC) assay. This assay is especially useful for determining synergistic effects between the peptides of the invention, and between invention peptides and other compounds such as known antibiotics. A FIC assay employs the strategy of a MIC assay with additional variable(s), e.g., known antibiotics. One type of FIC assay is performed in a microwell plate containing microorganisms in broth. Peptides, in a range of dilutions, is added to each well following a patter of one dimension of the microwell plate, and antibiotics, in the other dimension. The FIC is calculated by looking at the impact of an antibiotic on the MIC of the peptide and the reciprocal relationship. […] Preferably, an FIC of less than 0.5 is obtained for synergism. As used herein, FIC can be determined as follows:
(§2) The bacterial strains used for antimicrobial activity assays included E. coli UB1005 (F^−, nalA37, metB1) and its outer membrane deficient mutant DC2 (16), E. coli KF130 (gyrA) (Hooper et al. (1987) Am. J. Med. 82:(Suppl. 4A),12-20), wild tppe strains of S. typhimurium 14028s (Fields et al. (1989) Science 243:1059-1062), S. aureus ATCC25923, S. aureus SAP0017 and R147. Also included was a clinical isolate of S. epidermidis were obtained from Dr. D. Speert, Department of Medicine, University of British Columbia, and P. aeruginosa PAO1 (Hancock and Carey (1979) J. Bacteriol. 140:902-910), H374 and H744 (Poole et al. (1993) J. Bacterial.175:7363-7372.) and E. faecalis ATCC 29212. Antifungal activity was tested using a clinical lab isolate of Candida albicans. All the strains were grown in Mueller Hinton (MH) broth (Difco Laboratories, Detroit, Mich.) at 37° C. unless otherwise indicated. The lipopolysaccharides (LPS) of E. coli UB1005 and P. aeruginosa H103 used for the dansyl-polymyxin B replacement assay were isolated as described by Moore et al. ((1986) Antimicrobial. Agents Chemother. 29:496-500). Polymyxin B, 1-N-phenylnapthylamine (NPN), carbonyl cyanide-m-chlorophenyl hydrazone (CCCP), Re LPS from S. Minnesota R595 (Re mutant) and LPS from E. coli 0111 :B4 were purchased from Sigma Chemicals Co. (St. Louis, Mo.). Dansyl polymyxin B was synthesized as described previously (Moore et al. (1986) Antimicrobial. Agents Chemother. 29:496-500). The lipids 1-pamitoyl-2-oleoyl-sn-glycero-3-phosphocholine (POPC), 1-palmitoyl-2-oleoyl-sn-glycero-3-phosphoglycerol (POPG), 1-palmitoyl-2-oleoyl-sn-glycero-3-phosphoethanolamine (POPE) and phosphatidylglycerol from egg yolk (egg-PG) were purchased from Avanti Polar Lipids Inc. (Alabaster, Ala.). The fluorescent dye 3,3-dipropylthiacarbocyanine (diSC35) was purchased from Molecular Probes (Eugene, Oreg.).
(§3) MIC Assay p The minimum inhibitory concentrations of (MIC) of several invention peptides were determined using methods described elsewhere (Wu and Hancock, (1999) J. Biol Chem. 274:29-35). Cells were grown overnight at 37EC in LB-S (Luria broth without any salt supplement) and diluted one in 10,000 in the same medium to give concentrations of about 10^4 to 10^5 CFU/ml. The broth dilutions were set up in a 96-well microtiter plate by putting 200 μl of LB-S containing the initial concentration of antibiotic or compound in column 1 and 100 Φl of the same medium in columns 2-12. […]

The subject of assay [1] is Staphylococcus aureus ATCC 25923. In kind it is cell-based. How it is done: as §1, §2, §3
The subject of another assay is Candida albicans. Format: cell-based. Particulars: Candida albicans clinical lab isolate. How it is done:
as §1, §2, §3

The test system of assay [2] is Salmonella typhimurium 14028s. In kind it is cell-based. How it is done: as §1, §2, §3
Assay [3] concerns Staphylococcus epidermidis. In kind it is cell-based. The settings on record: Staphylococcus epidermidis clinical isolate. How it is done: as §1, §2, §3
Assay [4] relates to Pseudomonas aeruginosa PAO1. In kind it is cell-based. How it is done: as §1, §2, §3
In another assay the test system is Escherichia coli UB1005. In kind it is cell-based. How it is done: as §1, §2, §3
The next assay concerns E. coli DC2. Format: cell-based, Escherichia coli. The settings on record: E. coli DC2 (outer membrane deficient mutant). How it is done: (§4) The biological activity of the peptides can be determined by standard methods known to those of skill in the art, such as a “minimal inhibitory concentration” (MIC) assay (see Wu and Hancock (1999) J. Biol Chem. 274:29-35 and Examples section). A MIC assay allows the determination of the lowest concentration of peptide that inhibits the multiplication and growth of mircoorganisms. Changes in the microorganism population are assessed by measuring the optical density (OD) of the population in broth or medium. Peptide MIC's can be determined for a variety of micoorganisms under a variety of conditions. Another assay for the biological activity of the peptides is a “fractional inhibitory concentration” (FIC) assay. This assay is especially useful for determining synergistic effects between the peptides of the invention, and between invention peptides and other compounds such as known antibiotics. A FIC assay employs the strategy of a MIC assay with additional variable(s), e.g., known antibiotics. […] The FIC is calculated by looking at the impact of an antibiotic on the MIC of the peptide and the reciprocal relationship. […] As used herein, FIC can be determined as follows: […]
(§5) MIC Assay p The minimum inhibitory concentrations of (MIC) of several invention peptides were determined using methods described elsewhere (Wu and Hancock, (1999) J. Biol Chem. 274:29-35). […]

In a further assay the test system is E. coli KF130. Format: cell-based, Escherichia coli. How it is done: as §4, §5

The structures appear in SMILES notation. Where a SMILES comes first, the peptide text is derived from it.

In the case of `CC(C)[C@@H]1NC(=O)[C@H](CCCNC(=N)N)NC(=O)[C@H](Cc2ccccc2)NC(=O)[C@@H](NC(=O)[C@H](Cc2c[nH]c3ccccc23)NC(=O)[C@H](CCCNC(=N)N)NC(=O)[C@@H](N)CCCNC(=N)N)CSSC[C@@H](C(=O)N[C@@H](CCCNC(=N)N)C(N)=O)NC(=O)[C@H](CCCCN)NC(=O)[C@H](CCCNC(=N)N)NC(=O)[C@H](Cc2ccc(O)cc2)NC(=O)[C@@H]2CSSC[C@H](NC1=O)C(=O)N[C@@H](Cc1ccc(O)cc1)C(=O)N[C@@H](CCCNC(=N)N)C(=O)NCC(=O)N[C@@H](Cc1ccccc1)C(=O)N2` [Polyphemusin I] (HELM PEPTIDE1{R.R.W.C.F.R.V.C.Y.R.G.F.C.Y.R.K.C.R.[am]}$PEPTIDE1,PEPTIDE1,4:R3-17:R3|PEPTIDE1,PEPTIDE1,8:R3-13:R3$$$V2.0; N-terminus and C-terminus assumed), the MIC in the assay on Enterococcus facaelis came to 0.25 µg/mL; in [1] it was 0.5 µg/mL; in the assay with Candida albicans, 1 µg/mL; in assay [2], 0.25 µg/mL; in assay [3], 0.25 µg/mL; in assay [4], 0.25 µg/mL. The MIC in the assay with Escherichia coli UB1005, in the assay on E. coli DC2 and in the assay with E. coli KF130 was 0.125 µg/mL each time.

For orientation: MIC means the smallest concentration in the dilution series that meets the test's criterion for growth inhibition.

The record behind these values is US6337317B1, “Antimicrobial peptides and methods of use thereof” (priority 2000, dated 2002).
